According to patent US12247032B2, “Substituted pyrazolo[1,5-a]pyrimidines as inhibitors of JAK kinases” (Genentech, Inc., priority 2019, dated 2025):
Where two headings read alike, the source gives them in different places.

Key:
[1] = system: JAK1 (IL-13-stimulated STAT6 phosphorylation in BEAS-2B cells); assay: P-STAT6 BEAS-2B+IL-13 cell assay; format: cell-based, human; conditions: 1 hour compound, IL-13 15 minutes, IC50 by four-parameter fit, read-out: Cellular JAK1 PSTAT6 BEAS2B + IL13
In short: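 BEAS-2B human bronchial epithelial cells preincubated 1 h at 37 °C with compound, then stimulated with human recombinant IL-13 for 15 min. Phospho-STAT6 (Tyr641) in lysates measured by MSD electrochemiluminescence immunoassay; IC50 from a four-parameter logistic fit of percent of control.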

[2] = biological target: T1, recombinant human JAK1 kinase domain protein (Residues 854-1154) (Homo sapiens, UniProt P23458); assay: JAK1 biochemical assay (microfluidic mobility shift, peptide phosphorylation); conditions: 25 μM ATP, 1 nM total JAK1; Ki calculated from Ki app (tight-binding, competitive); read-out: Biochem JAK1 Ki
T1 construct: human JAK1 kinase domain protein (Residues 854-1154); purchased Proteros Biostructures GmbH (Martinsried, Germany); host or cells: insect cells
In short: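 Insect-cell-expressed human JAK1 (1 nM, residues 854-1154) or JAK2 (0.2 nM, residues 812-1132) phosphorylating 1.5 μM 5-FAM peptide Y-1B with 25 μM ATP, pH 7.2 HEPES, 30 min at 22-23 °C; twelve concentrations up to 1000 nM in duplicate. Mobility-shift % conversion fitted to tight-binding quadratic for Ki^app.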

T1 sequence (P23458 854-1154): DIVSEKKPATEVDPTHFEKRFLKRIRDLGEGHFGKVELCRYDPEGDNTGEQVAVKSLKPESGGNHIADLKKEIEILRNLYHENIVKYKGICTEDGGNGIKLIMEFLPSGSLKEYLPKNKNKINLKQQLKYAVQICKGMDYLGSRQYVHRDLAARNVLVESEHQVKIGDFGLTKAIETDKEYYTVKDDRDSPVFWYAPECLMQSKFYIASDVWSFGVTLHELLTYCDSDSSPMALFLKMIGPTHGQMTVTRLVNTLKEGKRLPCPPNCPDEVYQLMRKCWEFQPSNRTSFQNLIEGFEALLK

| SMILES | IC50 [1] [nM] | Ki [2] [nM] | IC50 ([1]; Homo sapiens, BEAS-2B, 1 h) [nM] |
| --- | --- | --- | --- |
| O=C(Nc1cn(Cc2nnn(C3CCNC3)n2)nc1-c1cc(OC(F)F)ccc1OC(F)F)c1cnn2cccnc12 (single isomer, unassigned) [Example 28, N-[3-[2,5-bis(difluoromethoxy)phenyl]-1-[(2-pyrrolidin-3-yltetrazol-5-yl)methyl]pyrazol-4-yl]pyrazolo[1,5-a]pyrimidine-3-carboxamide] | 12 | 0.3 |  |
| CNCCn1nnc(Cn2cc(NC(=O)c3cnn4cccnc34)c(-c3cc(OC(F)F)ccc3OC(F)F)n2)n1 [Example 20, N-[3-[2,5-bis(difluoromethoxy)phenyl]-1-[[2-[2-(methylamino)ethyl]tetrazol-5-yl]methyl]pyrazol-4-yl]pyrazolo[1,5-a]pyrimidine-3-carboxamide] |  | 0.57 | 30 |
| O=C(Nc1cn(Cc2nnn(C3CCNCC3)n2)nc1-c1cc(OC(F)F)ccc1OC(F)F)c1cnn2cccnc12 [Example 18, N-[3-[2,5-bis(difluoromethoxy)phenyl]-1-[[2-(4-piperidyl)tetrazol-5-yl]methyl]pyrazol-4-yl]pyrazolo[1,5-a]pyrimidine-3-carboxamide] |  | 0.51 | 35 |
| CN(C)CCn1nnnc1Cn1cc(NC(=O)c2cnn3cccnc23)c(-c2cc(OC(F)F)ccc2OC(F)F)n1 [Example 17, N-[3-[2,5-bis(difluoromethoxy)phenyl]-1-[[1-[2-(dimethylamino)ethyl]tetrazol-5-yl]methyl]pyrazol-4-yl]pyrazolo[1,5-a]pyrimidine-3-carboxamide] |  | 0.43 | 19 |
| CN1CCC(N2CC(n3nnc(Cn4cc(NC(=O)c5cnn6cccnc56)c(-c5cc(OC(F)F)ccc5OC(F)F)n4)n3)C2)CC1 [Example 38, N-[3-[2,5-bis(difluoromethoxy)phenyl]-1-[[2-[1-(1-methyl-4-piperidyl)azetidin-3-yl]tetrazol-5-yl]methyl]pyrazol-4-yl]pyrazolo[1,5-a]pyrimidine-3-carboxamide] |  | 0.48 | 18 |
| CSc1ccc(OC(F)F)c(-c2nn(Cc3nnn(C4CN(CCCN(C)C)C4)n3)cc2NC(=O)c2cnn3cccnc23)c1 [Example 58, N-[3-[2-(difluoromethoxy)-5-methylsulfanyl-phenyl]-1-[[2-[1-[3-(dimethylamino)propyl]azetidin-3-yl]tetrazol-5-yl]methyl]pyrazol-4-yl]pyrazolo[1,5-a]pyrimidine-3-carboxamide] |  | 0.41 | 57 |
| CN1CC(n2nnc(Cn3cc(NC(=O)c4cnn5cccnc45)c(-c4cc(OC(F)F)ccc4OC(F)F)n3)n2)C1 [Example 10, N-[3-[2,5-bis(difluoromethoxy)phenyl]-1-[[2-(1-methylazetidin-3-yl)tetrazol-5-yl]methyl]pyrazol-4-yl]pyrazolo[1,5-a]pyrimidine-3-carboxamide] |  | 0.33 | 17 |
| CN(CCN1CC(n2nnc(Cn3cc(NC(=O)c4cnn5cccnc45)c(-c4cc(OC(F)F)ccc4OC(F)F)n3)n2)C1)C(=O)OC(C)(C)C [Example 31, tert-butyl N-[2-[3-[5-[[3-[2,5-bis(difluoromethoxy)phenyl]-4-(pyrazolo[1,5-a]pyrimidine-3-carbonylamino)pyrazol-1-yl]methyl]tetrazol-2-yl]azetidin-1-yl]ethyl]-N-methyl-carbamate] |  | 0.34 | 22 |
| CN(C)CCN1CC(n2nnc(Cn3cc(NC(=O)c4cnn5cccnc45)c(-c4cc(OC(F)F)ccc4OC(F)F)n3)n2)C1 [Example 21, N-[3-[2,5-bis(difluoromethoxy)phenyl]-1-[[2-[1-[2-(dimethylamino)ethyl]azetidin-3-yl]tetrazol-5-yl]methyl]pyrazol-4-yl]pyrazolo[1,5-a]pyrimidine-3-carboxamide] |  | 0.4 | 15 |
| CN1CCC(n2nnc(Cn3cc(NC(=O)c4cnn5cccnc45)c(-c4cc(OC(F)F)ccc4OC(F)F)n3)n2)CC1 [Example 22] |  | 0.44 | 19 |
| CN1CC(n2nnc(Cn3cc(NC(=O)c4cnn5cccnc45)c(-c4cc(Cl)ccc4OC(F)F)n3)n2)C1 [Example 7, N-[3-[5-chloro-2-(difluoromethoxy)phenyl]-1-[[2-(1-methylazetidin-3-yl)tetrazol-5-yl]methyl]pyrazol-4-yl]pyrazolo[1,5-a]pyrimidine-3-carboxamide] |  | 0.42 | 9.8 |
| CN(C)[C@H]1C[C@H](N2CC(n3nnc(Cn4cc(NC(=O)c5cnn6cccnc56)c(-c5cc(OC(F)F)ccc5OC(F)F)n4)n3)C2)C1 [Example 70, N-[3-[2,5-bis(difluoromethoxy)phenyl]-1-[[2-[1-[3-(dimethylamino)cyclobutyl]azetidin-3-yl]tetrazol-5-yl]methyl]pyrazol-4-yl]pyrazolo[1,5-a]pyrimidine-3-carboxamide] |  | 0.64 | 27 |
| O=C(Nc1cn(Cc2nnnn2C2CNC2)nc1-c1cc(OC(F)F)ccc1OC(F)F)c1cnn2cccnc12 [Example 12, N-[1-[[1-(azetidin-3-yl)tetrazol-5-yl]methyl]-3-[2,5-bis(difluoromethoxy)phenyl]pyrazol-4-yl]pyrazolo[1,5-a]pyrimidine-3-carboxamide] |  | 0.21 | 31 |
| CN1CCC(n2nnnc2Cn2cc(NC(=O)c3cnn4cccnc34)c(-c3cc(OC(F)F)ccc3OC(F)F)n2)C1 (stereo not shown) [Example 26, N-[3-[2,5-bis(difluoromethoxy)phenyl]-1-[[1-(1-methylpyrrolidin-3-yl)tetrazol-5-yl]methyl]pyrazol-4-yl]pyrazolo[1,5-a]pyrimidine-3-carboxamide] |  | 0.51 | 16 |
| CN1CC(N2CC(n3nnc(Cn4cc(NC(=O)c5cnn6cccnc56)c(-c5cc(OC(F)F)ccc5OC(F)F)n4)n3)C2)C1 [Example 78, N-[3-[2,5-bis(difluoromethoxy)phenyl]-1-[[2-[1-(1-methylazetidin-3-yl)azetidin-3-yl]tetrazol-5-yl]methyl]pyrazol-4-yl]pyrazolo[1,5-a]pyrimidine-3-carboxamide; formic acid] |  | 0.44 | 40 |
| O=C(Nc1cn(Cc2nnn(C3CNC3)n2)nc1-c1cc(Cl)ccc1OC(F)F)c1cnn2cccnc12 [Example 8, N-[1-[[2-(azetidin-3-yl)tetrazol-5-yl]methyl]-3-[5-chloro-2-(difluoromethoxy)phenyl]pyrazol-4-yl]pyrazolo[1,5-a]pyrimidine-3-carboxamide] |  | 0.5 | 9.3 |
| CN(C)CCN1CC(n2nnc(Cn3cc(NC(=O)c4cnn5cccnc45)c(-c4cc(Cl)ccc4OC(F)F)n3)n2)C1 [Example 37, N-[3-[5-chloro-2-(difluoromethoxy)phenyl]-1-[[2-[1-[2-(dimethylamino)ethyl]azetidin-3-yl]tetrazol-5-yl]methyl]pyrazol-4-yl]pyrazolo[1,5-a]pyrimidine-3-carboxamide] |  | 0.48 | 16 |
| CN1CC(n2nnnc2Cn2cc(NC(=O)c3cnn4cccnc34)c(-c3cc(Cl)ccc3OC(F)F)n2)C1 [Example 15, N-[3-[5-chloro-2-(difluoromethoxy)phenyl]-1-[[1-(1-methylazetidin-3-yl)tetrazol-5-yl]methyl]pyrazol-4-yl]pyrazolo[1,5-a]pyrimidine-3-carboxamide] |  | 0.22 | 8.6 |
| NCCn1nnc(Cn2cc(NC(=O)c3cnn4cccnc34)c(-c3cc(OC(F)F)ccc3OC(F)F)n2)n1 [Example 13, N-[1-[[2-(2-aminoethyl)tetrazol-5-yl]methyl]-3-[2,5-bis(difluoromethoxy)phenyl]pyrazol-4-yl]pyrazolo[1,5-a]pyrimidine-3-carboxamide] |  | 0.25 | 11 |
| CNCCn1nnnc1Cn1cc(NC(=O)c2cnn3cccnc23)c(-c2cc(OC(F)F)ccc2OC(F)F)n1 [Example 19, N-[3-[2,5-bis(difluoromethoxy)phenyl]-1-[[1-[2-(methylamino)ethyl]tetrazol-5-yl]methyl]pyrazol-4-yl]pyrazolo[1,5-a]pyrimidine-3-carboxamide] |  | 0.22 | 21 |
| NCCn1nnnc1Cn1cc(NC(=O)c2cnn3cccnc23)c(-c2cc(OC(F)F)ccc2OC(F)F)n1 [Example 14, N-[1-[[1-(2-aminoethyl)tetrazol-5-yl]methyl]-3-[2,5-bis(difluoromethoxy)phenyl]pyrazol-4-yl]pyrazolo[1,5-a]pyrimidine-3-carboxamide] |  | 0.26 | 39 |
| CN1CCC(N2CC(n3nnc(Cn4cc(NC(=O)c5cnn6cccnc56)c(-c5cc(OC(F)F)ccc5OC(F)F)n4)n3)C2)C1 (single isomer, unassigned) [Example 72, N-[3-[2,5-bis(difluoromethoxy)phenyl]-1-[[2-[1-(1-methylpyrrolidin-3-yl)azetidin-3-yl]tetrazol-5-yl]methyl]pyrazol-4-yl]pyrazolo[1,5-a]pyrimidine-3-carboxamide] |  | 0.61 | 36 |
| CN(C)CCn1nnc(Cn2cc(NC(=O)c3cnn4cccnc34)c(-c3cc(OC(F)F)ccc3OC(F)F)n2)n1 [Example 16, N-[3-[2,5-bis(difluoromethoxy)phenyl]-1-[[2-[2-(dimethylamino)ethyl]tetrazol-5-yl]methyl]pyrazol-4-yl]pyrazolo[1,5-a]pyrimidine-3-carboxamide] |  | 0.45 | 18 |
